This passage reports IC50 results from patent publication US20250230171A1 (MOMA Therapeutics, Inc., priority 2023, published 2025).

Assay [1] deals with DLD1 WT cells. Put plainly: 7-day cell viability assay (CellTiter-Glo), DLD1 parental (WT). Format: cell-based, human. The settings on record: Homo sapiens, DLD-1, 168 h, 7-day viability, n=2. For orientation: Cellular ATP, detected with luciferase, serves as a proxy for viable cell number.
For assay [2], the target named is biotinylated Avi-POLθ[2-894] (Homo sapiens (Human), UniProt O75417). Description: POLθ ATPase assay (ADP-Glo). Conditions: n=2; read-out: Biochemical ATPase ADPGlo IC50. For orientation: ADP-Glo first removes unused ATP, then detects ADP through luciferase.
The test system of assay [3] is DLD1 BRCA2 (−/−) cells. Put plainly: 7-day cell viability assay (CellTiter-Glo), DLD1 BRCA2 (−/−). Format: cell-based, human. Conditions: Homo sapiens, DLD-1, 168 h, 7-day viability, n=2, read-out: Viability IC50 (uM) DLD1 BRCA2 null. An outline of the steps:
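7-day growth assay in DLD1 cells with or without BRCA2; seeding densities chosen to keep log-linear growth. Compound: 10 uM top, 3-fold, 9 points. Endpoint: CTG ATP luminescence at RT.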

Chain of biotinylated Avi-POLθ[2-894] (O75417 2-894): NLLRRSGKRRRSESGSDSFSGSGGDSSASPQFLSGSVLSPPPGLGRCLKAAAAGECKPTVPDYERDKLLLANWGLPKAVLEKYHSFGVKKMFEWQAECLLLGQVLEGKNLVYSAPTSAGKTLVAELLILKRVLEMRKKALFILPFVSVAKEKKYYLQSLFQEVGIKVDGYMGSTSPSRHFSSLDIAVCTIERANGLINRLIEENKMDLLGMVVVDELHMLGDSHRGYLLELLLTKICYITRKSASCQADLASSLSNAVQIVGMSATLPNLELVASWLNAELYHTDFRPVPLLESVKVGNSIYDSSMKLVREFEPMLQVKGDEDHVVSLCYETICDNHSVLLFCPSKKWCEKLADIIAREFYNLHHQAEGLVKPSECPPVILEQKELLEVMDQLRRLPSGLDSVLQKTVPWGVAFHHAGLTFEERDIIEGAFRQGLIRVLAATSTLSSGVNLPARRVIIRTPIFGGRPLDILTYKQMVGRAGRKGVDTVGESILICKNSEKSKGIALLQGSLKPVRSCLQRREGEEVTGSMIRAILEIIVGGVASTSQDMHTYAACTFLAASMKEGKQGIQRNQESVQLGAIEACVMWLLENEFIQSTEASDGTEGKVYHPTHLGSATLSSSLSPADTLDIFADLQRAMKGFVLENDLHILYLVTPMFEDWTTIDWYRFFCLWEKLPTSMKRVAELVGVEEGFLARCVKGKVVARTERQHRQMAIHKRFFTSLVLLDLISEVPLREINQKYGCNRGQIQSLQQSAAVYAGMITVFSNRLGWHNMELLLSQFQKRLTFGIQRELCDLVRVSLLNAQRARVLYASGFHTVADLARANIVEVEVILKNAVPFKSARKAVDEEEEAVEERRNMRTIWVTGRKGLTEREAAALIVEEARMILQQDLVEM

One may read the IC50 as the concentration at which inhibition is half-maximal. In the case of `COc1cnc(Cl)cc1-c1cc(C)ncc1C(=O)Nc1nc2c(s1)CN(C(=O)c1ccc(C(F)(F)F)nc1)C2` [Example 42, 2′-chloro-5′-methoxy-6-methyl-N-(5-(6-(trifluoromethyl)nicotinoyl)-5,6-dihydro-4H-pyrrolo[3,4-d]thiazol-2-yl)-[4,4′-bipyridine]-3-carboxamide], the IC50 in assay [1] was at least 10 µM; in assay [2], 1 to 15 nM; in assay [3] it was 0.001 to 0.1 µM.
On the same counts, the results for `COc1cnc(Cl)cc1-c1cc(C)ncc1C(=O)Nc1nc2c(s1)CN(C(=O)c1cc(C(F)(F)F)nn1C)C2` [Example 44, 2′-chloro-5′-methoxy-6-methyl-N-(5-(1-methyl-3-(trifluoromethyl)-1H-pyrazole-5-carbonyl)-5,6-dihydro-4H-pyrrolo[3,4-d]thiazol-2-yl)-[4,4′-bipyridine]-3-carboxamide] are at least 10 µM, 1 to 15 nM and 0.001 to 0.1 µM.
On the same counts, the results for `COc1cnc(Cl)cc1-c1cc(C)ncc1C(=O)Nc1nc2c(s1)CN(C(=O)c1ncc(C)o1)C2` [Example 45, 2′-chloro-5′-methoxy-6-methyl-N-(5-(5-methyloxazole-2-carbonyl)-5,6-dihydro-4H-pyrrolo[3,4-d]thiazol-2-yl)-[4,4′-bipyridine]-3-carboxamide] are 2 to 5 µM, 1 to 15 nM and 0.001 to 0.1 µM.
The matching figures for `COc1cnc(Cl)cc1-c1cc(C)ncc1C(=O)Nc1nc2c(s1)CN(C(=O)c1nn(C)c3c1CCC3)C2` [Example 47, 2′-chloro-5′-methoxy-6-methyl-N-(5-(1-methyl-1,4,5,6-tetrahydrocyclopenta[c]pyrazole-3-carbonyl)-5,6-dihydro-4H-pyrrolo[3,4-d]thiazol-2-yl)-[4,4′-bipyridine]-3-carboxamide]: 5 to 10 µM, 1 to 15 nM and 0.001 to 0.1 µM.
With `COc1cnc(Cl)cc1-c1cc(C)ncc1C(=O)Nc1nc2c(s1)CN(C(=O)[C@H]1CC[C@@H](OC)CC1)C2` [Example 48, 2′-chloro-5′-methoxy-N-(5-((1s,4s)-4-methoxycyclohexane-1-carbonyl)-5,6-dibydro-4H-pyrrolo[3,4-d]thiazol-2-yl)-6-methyl-[4,4′-bipyridine]-3-carboxamide], the IC50 in assay [1] is at least 10 µM; in assay [2] it was 1 to 15 nM; in assay [3] it was 0.001 to 0.1 µM.
As to `COc1cnc(Cl)cc1-c1cc(C)ncc1C(=O)Nc1nc2c(s1)CN(C(=O)c1cc(C)nn1C)C2` [Example 49, 2′-chloro-N-(5-(1,3-dimethyl-1H-pyrazole-5-carbonyl)-5,6-dihydro-4H-pyrrolo[3,4-d]thiazol-2-yl)-5′-methoxy-6-methyl-[4,4′-bipyridine]-3-carboxamide], the values for the half-inhibitory concentration (IC50) in assay [1], in assay [2] and in assay [3] were at least 10 µM, 1 to 15 nM and 0.001 to 0.1 µM, respectively.
On the same counts, the results for `COc1cnc(Cl)cc1-c1cc(C)ncc1C(=O)Nc1nc2c(s1)CN(C(=O)c1cc(C)n(C(F)F)n1)C2` [Example 52, 2′-chloro-N-(5-(1-(difluoromethyl)-5-methyl-1H-pyrazole-3-carbonyl)-5,6-dihydro-4H-pyrrolo[3,4-d]thiazol-2-yl)-5′-methoxy-6-methyl-[4,4′-bipyridine]-3-carboxamide] are at least 10 µM, 1 to 15 nM and 0.001 to 0.1 µM.
`CCc1cc(C(=O)N2Cc3nc(NC(=O)c4cnc(C)cc4-c4cc(Cl)ncc4OC)sc3C2)n(C)n1` [Example 57, 2′-chloro-N-(5-(3-ethyl-1-methyl-1H-pyrazole-5-carbonyl)-5,6-dihydro-4H-pyrrolo[3,4-d]thiazol-2-yl)-5′-methoxy-6-methyl-[4,4′-bipyridine]-3-carboxamide]: the IC50 in assay [1] is at least 10 µM; in assay [2] it was 1 to 15 nM; in assay [3], 0.001 to 0.1 µM.
Consider `CCc1cc(C(=O)N2Cc3nc(NC(=O)c4cnc(C)cc4-c4cc(Cl)ncc4OC)sc3C2)nn1C` [Example 58, 2′-chloro-N-(5-(5-ethyl-1-methyl-1H-pyrazole-3-carbonyl)-5,6-dihydro-4H-pyrrolo[3,4-d]thiazol-2-yl)-5′-methoxy-6-methyl-[4,4′-bipyridine]-3-carboxamide], for which the 50% inhibitory concentration (IC50) is at least 10 µM in assay [1], 1 to 15 nM in assay [2] and 0.001 to 0.1 µM in assay [3].
On the same counts, the results for `COc1cnc(Cl)cc1-c1cc(C)ncc1C(=O)Nc1nc2c(s1)CN(C(=O)c1cc3n(n1)CCC3)C2` [Example 63, 2′-chloro-N-(5-(5,6-dihydro-4H-pyrrolo[1,2-b]pyrazole-2-carbonyl)-5,6-dihydro-4H-pyrrolo[3,4-d]thiazol-2-yl)-5′-methoxy-6-methyl-[4,4′-bipyridine]-3-carboxamide] are 5 to 10 µM, 1 to 15 nM and 0.001 to 0.1 µM.
On the same counts, the results for `COc1cnc(Cl)cc1-c1cc(C)ncc1C(=O)Nc1nc2c(s1)CN(C(=O)C1CC3(C1)CC(F)(F)C3)C2` [Example 64, 2′-chloro-N-(5-(6,6-difluorospiro[3.3]heptane-2-carbonyl)-5,6-dihydro-4H-pyrrolo[3,4-d]thiazol-2-yl)-5′-methoxy-6-methyl-[4,4′-bipyridine]-3-carboxamide] are 5 to 10 µM, 1 to 15 nM and 0.001 to 0.1 µM.
In the case of `COc1cnc(Cl)cc1-c1cc(C)ncc1C(=O)Nc1nc2c(s1)CN(C(=O)c1nn(C)c(C)c1F)C2` [Example 66], the results for the IC50 in assay [1], in assay [2] and in assay [3] were 5 to 10 µM, 1 to 15 nM and 0.001 to 0.1 µM, respectively.
With `COc1cnc(Cl)cc1-c1cc(C)ncc1C(=O)Nc1nc2c(s1)CN(C(=O)c1nc(C)co1)C2` [Example 67, 2′-chloro-5′-methoxy-6-methyl-N-(5-(4-methyloxazole-2-carbonyl)-5,6-dihydro-4H-pyrrolo[3,4-d]thiazol-2-yl)-[4,4′-bipyridine]-3-carboxamide], the IC50 fell in the range of 0.5 to 2 µM in assay [1], 1 to 15 nM in assay [2] and 0.001 to 0.1 µM in assay [3].
On to `COc1cnc(Cl)cc1-c1cc(C)ncc1C(=O)Nc1nc2c(s1)CN(C(=O)c1cc(Cl)n(C)n1)C2` [Example 73, 2′-chloro-N-(5-(5-chloro-1-methyl-1H-pyrazole-3-carbonyl)-5,6-dihydro-4H-pyrrolo[3,4-d]thiazol-2-yl)-5′-methoxy-6-methyl-[4,4′-bipyridine]-3-carboxamide], for which the 50% inhibitory concentration (IC50) was in the range of 0.001 to 0.5 µM in assay [1], 1 to 15 nM in assay [2] and 0.001 to 0.1 µM in assay [3].
The matching figures for `COc1cnc(Cl)cc1-c1cc(C)ncc1C(=O)Nc1nc2c(s1)CN(C(=O)c1nn(C)c(C)c1Cl)C2` [Example 74, 2′-chloro-N-(5-(4-chloro-1,5-dimethyl-1H-pyrazole-3-carbonyl)-5,6-dihydro-4H-pyrrolo[3,4-d]thiazol-2-yl)-5′-methoxy-6-methyl-[4,4′-bipyridine]-3-carboxamide]: 0.001 to 0.5 µM, 1 to 15 nM and 0.001 to 0.1 µM.
The matching figures for `COc1cnc(Cl)cc1-c1cc(C)ncc1C(=O)Nc1nc2c(s1)CN(C(=O)c1cc(Cl)ccn1)C2` [Example 78, 2′-chloro-N-(5-(4-chloropicolinoyl)-5,6-dihydro-4H-pyrrolo[3,4-d]thiazol-2-yl)-5′-methoxy-6-methyl-[4,4′-bipyridine]-3-carboxamide]: 5 to 10 µM, 1 to 15 nM and 0.001 to 0.1 µM.
As to `COc1cnc(C(=O)N2Cc3nc(NC(=O)c4cnc(C)cc4-c4cc(Cl)ncc4OC)sc3C2)o1` [Example 79, 2′-chloro-5′-methoxy-N-(5-(5-methoxyoxazole-2-carbonyl)-5,6-dihydro-4H-pyrrolo[3,4-d]thiazol-2-yl)-6-methyl-[4,4′-bipyridine]-3-carboxamide], the 50% inhibitory concentration (IC50) in assay [1] lay within 0.5 to 2 µM; in assay [2], 1 to 15 nM; in assay [3], 0.001 to 0.1 µM.
Turning to `COc1cnc(Cl)cc1-c1cc(C)ncc1C(=O)Nc1nc2c(s1)CN(C(=O)c1c(C)cnn1C)C2` [Example 81, 2′-chloro-N-(5-(1,4-dimethyl-1H-pyrazole-5-carbonyl)-5,6-dihydro-4H-pyrrolo[3,4-d]thiazol-2-yl)-5′-methoxy-6-methyl-[4,4′-bipyridine]-3-carboxamide], the IC50 in assay [1] was at least 10 µM; in assay [2], 1 to 15 nM; in assay [3] it was 0.001 to 0.1 µM.
On the same counts, the results for `COc1cnc(Cl)cc1-c1cc(C)ncc1C(=O)Nc1nc2c(s1)CN(C(=O)c1cnn(C)c1C(F)(F)F)C2` [Example 84, 2′-chloro-5′-methoxy-6-methyl-N-(5-(1-methyl-5-(trifluoromethyl)-1H-pyrazole-4-carbonyl)-5,6-dihydro-4H-pyrrolo[3,4-d]thiazol-2-yl)-[4,4′-bipyridine]-3-carboxamide] are at least 10 µM, 1 to 15 nM and 0.001 to 0.1 µM.
In the case of `COc1cnc(Cl)cc1-c1cc(C)ncc1C(=O)Nc1nc2c(s1)CN(C(=O)c1c(C(F)F)nn(C)c1Cl)C2` [Example 89, 2′-chloro-N-(5-(5-chloro-3-(difluoromethyl)-1-methyl-1H-pyrazole-4-carbonyl)-5,6-dihydro-4H-pyrrolo[3,4-d]thiazol-2-yl)-5′-methoxy-6-methyl-[4,4′-bipyridine]-3-carboxamide], the IC50 in assay [1] was at least 10 µM; in assay [2], 1 to 15 nM; in assay [3], 0.001 to 0.1 µM.
The matching figures for `COc1cc(C(=O)N2Cc3nc(NC(=O)c4cnc(C)cc4-c4cc(Cl)ncc4OC)sc3C2)n(C)n1` [Example 90, 2′-chloro-5′-methoxy-N-(5-(3-methoxy-1-methyl-1H-pyrazole-5-carbonyl)-5,6-dihydro-4H-pyrrolo[3,4-d]thiazol-2-yl)-6-methyl-[4,4′-bipyridine]-3-carboxamide]: at least 10 µM, 1 to 15 nM and 0.001 to 0.1 µM.
